# Where no end group is shown, it is not given here.
# Assays:
# Type in all cases: cell-based, human
# T-cell clone CSF-3 = assay: Proliferative assay of T-cell clone CSF-3 (3H-thymidine incorporation); details: for Potency EC50: concentration inducing half-maximal proliferation; for Potency % of Max. response / Potency max. response / Potency % of max. response: percentage of highest proliferative response (100% = 28,255 c.p.m. for peptide 77); for EC50: peptide concentration inducing half-maximal proliferation, TCC CSF-3, Table 5
# Method: (§1) The proliferation of TCC in response to PS-SCL or individual peptides was tested by seeding in duplicate 2×10^4 T cells, 5×10^4 irradiated PBMC with or without mixtures from PS-SCL or peptide. Proliferation was measured by [^3H]-thymidine incorporation (Hemmer B. et al., 2000, J Immunol 164:861).
# (§2) The proliferation of T-cell clones in response to PS-SCL or individual peptides was tested by seeding in duplicate 2×10^4 T-cells, 5×10^4 irradiated peripheral blood mononuclear cells with or without 200 μg/ml PS-SCL or peptide (Hemmer, B. et al. 1998, J Pept Res 52: 338-345). Proliferation was measured by ^3H-thymidine incorporation (Hemmer, B. et al. 1997, J Exp Med 185: 1651-1659). Experiments were repeated at least twice. HLA restriction was determined by using bare lymphocyte syndrome cells transfected with DR2a (DRB5*0101) or DR2b (DRB1*1501) (provided by G. Nepom, University of Washington, Seattle) (Kovats, S. et al. 1994, J Exp Med 179: 2017-2022). The proliferation of peripheral blood mononuclear cells was measured in an IL-7-modified 7-day primary proliferation assay. Peripheral blood mononuclear cells (1×10^5 per well; 10 wells each and 10 control wells per plate) were seeded with 10 ng/ml IL-7 and 15 μg/ml peptide. Then, 1 μCi ^3H-thymidine/well was added at day 7 for 12 h before radioactivity was measured. Wells were considered positive if the counts per minute exceeded the average background proliferation+3 s.d. (Reece J. C. et al., 1993, Immunol 151: 6175-6184).
# [1] = test system: peripheral blood mononuclear cells; assay: IL-7-modified 7-day primary proliferation assay of peripheral blood mononuclear cells; details: number of wells of 10 with positive primary proliferative response, 15 μg/ml peptide
# Method: as §2
# [2] = test system: TCRζ-chain phosphoisoforms / ZAP-70 in CSF-3 cells; assay: T-cell-receptor signaling (tyrosine phosphorylation of TCR subunits, ZAP-70 immunoprecipitation); details: CSF-3 cells stimulated 5 or 10 min
# Method: T-cells (1×10^6) were added to peptide-pulsed bare lymphocyte syndrome cells (2×10^6) and, after centrifugation (10 s at 300 g), were incubated at 37° C., washed once with PBS and incubated for 25 min on ice in lysis buffer (1% Nonidet-P40, 10 mM Tris-HCl, pH 7.2, 140 mM NaCl, 2 mM EDTA, 5 mM iodoacetamide, 1 mM Na3VO4 and complete protease inhibitor ‘cocktail’; Boehringer). After nuclear debris were removed, proteins in lysate supernatants were immunoprecipitated by incubation at 4° C. for 12 h with rabbit antibody against ZAP-70 (provided by L. Samelson, National Institute of Child Health and Human Development, National Institutes of Health). Proteins were separated by SDS-PAGE and immunoblotted with 4G10, a mouse monoclonal antibody against phosphotyrosine (Upstate Biotechnology, Lake Placid, N.Y.).
# TCC GP5F11 = assay: Proliferative assay of TCC GP5F11 (3H-thymidine incorporation); details: FIG. 4; result in words
# Method: as §1
# [3] = B. burgdorferi peptides, Table 8
# [4] = background 2,899 ± 1,417 c.p.m., Table 8
# [5] = human autoantigenic mimics, Table 9
# [6] = background 1,306 ± 582 c.p.m., Table 9
# [7] = background 2,899 ± 1,417 c.p.m., Table 10
Substance,Potency EC50 (T-cell clone CSF-3; [3]),Potency % of Max. response (T-cell clone CSF-3; Table 8),"PB PP [1, 4]",EC50 (T-cell clone CSF-3),further results
"LNIKNSKLEI [Peptide 30, LNIKNSKLEI]",<0.001 µg/mL,64.2%,0,,
"FNITSSTCEL [Peptide 64, FNITSSTCEL]",,,,,"Potency EC50 (T-cell clone CSF-3; [5]): 0.1 to 1 µg/mL; Potency max. response (T-cell clone CSF-3; Table 9): 66.3%; PB PP [1, 6]: 1"
"SNIKSKLILV [S N I K S K L I L V, SNIKSKLILV]",,,,1 µg/mL,
"DNIFKKETLI [D N I F K K E T L I, DNIFKKETLI]",,,,1 µg/mL,
"ENIYYSSVRT [Peptide 77, ENIYYSSVRT]",,,,,"Potency EC50 (T-cell clone CSF-3; viral mimic peptides, Table 10): 1 to 10 µg/mL; Potency % of max. response (T-cell clone CSF-3; Table 10): 100%; PB PP [1, 7]: 3"
"DNITSSVLFN [Peptide 71, DNITSSVLFN]",,,,,"Potency EC50 (T-cell clone CSF-3; [5]): 0.1 to 1 µg/mL; Potency max. response (T-cell clone CSF-3; Table 9): 60.6%; PB PP [1, 6]: 5; effect on early TCR signaling events (TCRζ-chain p38 phospho-isoforms, recruitment of active ZAP-70) [2]: fall agonist response"
"NNIKSKVDNA [Peptide 47, NNIKSKVDNA]",1 to 10 µg/mL,80.6%,0,,
"SNIIKSLSLF [S N I I K S L S L F, SNIIKSLSLF]",,,,0.1 to 1 µg/mL,
"LHIISKRVEA [Peptide 61, LHIISKRVEA]",,,,,"Potency EC50 (T-cell clone CSF-3; [5]): 0.1 to 1 µg/mL; Potency max. response (T-cell clone CSF-3; Table 9): 70.0%; PB PP [1, 6]: 0"
"QAIGKKTQNN [Peptide 26, QAIGKKTQNN]",<0.001 µg/mL,80.8%,3,,
"RNIFKKTVEN [R N I F K K T V E N, RNIFKKTVEN]",,,,>100 µg/mL,
"NNIYKKALIS [Peptide 59, NNIYKKALIS]",0.1 to 1 µg/mL,68.1%,3,1 µg/mL,"effect on early TCR signaling events (TCRζ-chain p38 phospho-isoforms, recruitment of active ZAP-70) [2]: fall agonist response"
"ENIKKILLRE [Peptide 46, ENIKKILLRE]",0.1 to 1 µg/mL,65.1%,3,,
"YVKQNTLKLA (listed as Influenza virus) [Flu-HA308-317, influenza virus hemagglutinin decamer, target peptide of TCC GP5F11, reference compound]",,,,,proliferative response of TCC GP5F11 (potency) (TCC GP5F11): intermediate potency
"LNITSSSYLF [Peptide 42, LNITSSSYLF]",1 to 10 µg/mL,71.4%,0,,
"PIP5 KIII246-255: low-scoring peptide derived from H. sapiens phosphatidylinositol-4-phosphate 5-kinase type III (LDPSEPRTPV; UniProt Q9Y2I7 246-255, looked up, fragment)",,,,,proliferative response of TCC GP5F11 (potency) (TCC GP5F11): non-stimulatory

Substance,Potency EC50 (T-cell clone CSF-3; [3]),Potency % of Max. response (T-cell clone CSF-3; Table 8),"PB PP [1, 4]",EC50 (T-cell clone CSF-3),further results
"FFIKKRSLII [Peptide 54, FFIKKRSLII]",1 to 10 µg/mL,59.8%,5,1 µg/mL,
"SNIIKKTSED [Peptide 57, SNIIKKTSED]",0.1 to 1 µg/mL,65.2%,4,1 µg/mL,
"ENVKKSRRLI [Peptide 66, ENVKKSRRLI]",,,,,"Potency EC50 (T-cell clone CSF-3; [5]): 0.1 to 1 µg/mL; Potency max. response (T-cell clone CSF-3; Table 9): 64.1%; PB PP [1, 6]: 0"
"FNIYKRVVDN [F N I Y K R V V D N, FNIYKRVVDN]",,,,1 µg/mL,
"SFIYSVVCLV [Peptide 62, SFIYSVVCLV]",,,,,"Potency EC50 (T-cell clone CSF-3; [5]): 0.1 to 1 µg/mL; Potency max. response (T-cell clone CSF-3; Table 9): 75.7%; PB PP [1, 6]: 9"
"FNITSSIRNK [Peptide 75, FNITSSIRNK]",,,,,"Potency EC50 (T-cell clone CSF-3; viral mimic peptides, Table 10): 1 µg/mL; Potency % of max. response (T-cell clone CSF-3; Table 10): 63.5%; PB PP [1, 7]: 1"
"FNIIKVHSSL [Peptide 37, FNIIKVHSSL]",0.001 to 0.01 µg/mL,69.3%,1,,
"YNIIVSSLLL [Y N I I V S S L L L, YNIIVSSLLL]",,,,1 to 10 µg/mL,
WMKQNIGRFL [predicted stimulatory peptide with optimal amino acids in each position for TCC GP5F11],,,,,proliferative response of TCC GP5F11 (potency) (TCC GP5F11): two orders of magnitude more potent than the target sequence
"PNITFSVVYN [Peptide 74, PNITFSVVYN]",,,,,"Potency EC50 (T-cell clone CSF-3; viral mimic peptides, Table 10): 0.1 to 1 µg/mL; Potency % of max. response (T-cell clone CSF-3; Table 10): 78.3%; PB PP [1, 7]: 0"
"GHIKKKRVEA [Peptide 63, GHIKKKRVEA]",,,,,"Potency EC50 (T-cell clone CSF-3; [5]): 1 to 10 µg/mL; Potency max. response (T-cell clone CSF-3; Table 9): 56.5%; PB PP [1, 6]: 0"
"TLITKKISAI [Peptide 28, TLITKKISAI]",<0.001 µg/mL,65.9%,1,,
"FNIIKSLLGG [52′, FNIIKSLLGG]",,,,,"Potency EC50 (T-cell clone CSF-3; viral mimic peptides, Table 10): 1 to 10 µg/mL; stimulation (proliferation) of T-cell clone CSF-3 (T-cell clone CSF-3; result in words): stimulatory"
"YNIKKIKVED [Peptide 38, YNIKKIKVED]",0.1 to 1 µg/mL,62.7%,1,,
"NNIDKKVYTN [N N I D K K V Y T N, NNIDKKVYTN]",,,,1 to 10 µg/mL,

# Reference: US20040072246A1, “System and method for identifying t cell and other epitopes and the like” (priority 2003, published 2004)
